From ChEMBL document CHEMBL1146691, “Conformationally-flexible benzamide analogues as dopamine D3 and sigma 2 receptor ligands” (Bioorg Med Chem Lett, 2004)

Columns and labels:
D(3) dopamine receptor = D(3) dopamine receptor (Rattus norvegicus, UniProt P19020); assay: biochemical
D(2) dopamine receptor = D(2) dopamine receptor (Rattus norvegicus, UniProt P61169); assay: biochemical
D(4) dopamine receptor = molecular target: T1, D(4) dopamine receptor (Homo sapiens, UniProt P21917)
T1 sequence (P21917 whole entry): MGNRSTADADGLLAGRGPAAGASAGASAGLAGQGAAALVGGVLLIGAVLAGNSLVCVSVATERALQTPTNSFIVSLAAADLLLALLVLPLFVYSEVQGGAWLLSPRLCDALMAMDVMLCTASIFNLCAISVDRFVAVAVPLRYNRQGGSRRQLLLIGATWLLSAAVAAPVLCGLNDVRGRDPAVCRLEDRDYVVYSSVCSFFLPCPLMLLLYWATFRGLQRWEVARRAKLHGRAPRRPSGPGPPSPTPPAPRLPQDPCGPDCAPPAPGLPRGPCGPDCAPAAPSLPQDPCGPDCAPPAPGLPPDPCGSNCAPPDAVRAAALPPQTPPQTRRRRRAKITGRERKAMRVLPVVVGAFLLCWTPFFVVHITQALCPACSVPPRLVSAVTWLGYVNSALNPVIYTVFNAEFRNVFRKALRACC

Chain of D(2) dopamine receptor (P61169 whole entry): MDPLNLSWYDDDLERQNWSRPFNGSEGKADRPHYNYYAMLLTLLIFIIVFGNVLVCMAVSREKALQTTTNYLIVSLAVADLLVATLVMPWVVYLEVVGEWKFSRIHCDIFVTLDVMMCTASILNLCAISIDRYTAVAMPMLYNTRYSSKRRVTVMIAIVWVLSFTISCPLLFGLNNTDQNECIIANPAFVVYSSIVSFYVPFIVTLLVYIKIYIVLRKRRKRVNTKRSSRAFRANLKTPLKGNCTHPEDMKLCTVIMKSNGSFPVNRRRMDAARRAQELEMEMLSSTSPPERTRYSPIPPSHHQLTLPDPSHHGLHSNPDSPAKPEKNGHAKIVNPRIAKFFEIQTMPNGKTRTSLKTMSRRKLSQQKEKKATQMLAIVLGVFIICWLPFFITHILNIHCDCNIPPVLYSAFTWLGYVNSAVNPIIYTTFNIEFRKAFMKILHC
Chain of D(3) dopamine receptor (P19020 whole entry): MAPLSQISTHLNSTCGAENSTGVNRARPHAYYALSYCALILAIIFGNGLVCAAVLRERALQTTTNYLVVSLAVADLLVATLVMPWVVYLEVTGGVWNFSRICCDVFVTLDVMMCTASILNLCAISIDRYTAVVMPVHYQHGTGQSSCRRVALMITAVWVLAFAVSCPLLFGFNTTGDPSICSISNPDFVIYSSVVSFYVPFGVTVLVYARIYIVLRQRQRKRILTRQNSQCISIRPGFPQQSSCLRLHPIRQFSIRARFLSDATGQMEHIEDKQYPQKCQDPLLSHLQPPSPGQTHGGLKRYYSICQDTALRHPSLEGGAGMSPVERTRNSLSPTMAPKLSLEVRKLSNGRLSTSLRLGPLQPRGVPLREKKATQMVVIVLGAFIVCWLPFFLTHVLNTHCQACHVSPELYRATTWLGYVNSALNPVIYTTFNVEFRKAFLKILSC

| SMILES | Ki (D(3) dopamine receptor) [nM] | Ki (D(2) dopamine receptor) [nM] | Ki (Sigma 2 receptor) [nM] | Ki (D(4) dopamine receptor) [nM] |
| --- | --- | --- | --- | --- |
| COc1c(C(=O)NCCN2CCN(c3cccc(Cl)c3Cl)CC2)cc(Br)c2ccccc12 | 8 | > 10000 |  |  |
| O=C(NCCCCN1CCN(c2cccc(Cl)c2Cl)CC1)c1ccc2c(c1)Cc1ccccc1-2 | 1.4 | 217 |  |  |
| COc1cc(Br)cc(-c2ccc(CN3CCc4ccccc4C3)[nH]2)c1OC | 3.8 | 30 |  |  |
| COc1cc(Br)cc(C(=O)NCCN2CCc3ccccc3C2)c1OC |  |  | 716 | 47.9 |
| COc1c(C(=O)NC[C@H]2CCCN2C2CCCCC2)cc(Br)c2ccccc12 |  |  | 25 |  |
| COc1cc(Br)cc(C(=O)NCCCCN2CCN(c3cccc(Cl)c3Cl)CC2)c1OC |  |  | 75 | 800 |
| COc1cc2c(cc1OC)CN(CCCCNC(=O)c1cc(Br)c3ccccc3c1OC)CC2 |  |  | 17.6 |  |
| COc1cc2c(cc1OC)CN(Cc1ccc(-c3cc(Br)cc(OC)c3OC)[nH]1)CC2 | 3.9 | 33 |  |  |
| COc1c(C(=O)NC2CCN(C3C4CC5CC(C4)CC3C5)C2)cc(Br)c2ccccc12 (stereo unspecified) | 0.4 |  | 70 |  |

Other lines, results leading:

| Ki (D(3) dopamine receptor) [nM] | Ki (D(2) dopamine receptor) [nM] | Ki (Sigma 2 receptor) [nM] | Ki (D(4) dopamine receptor) [nM] | SMILES |
| --- | --- | --- | --- | --- |
|  |  | 8.2 |  | COc1cc2c(cc1OC)CN(CCCCNC(=O)c1cc(Br)cc(OC)c1OC)CC2 |
| 1.4 | 89 |  |  | O=C(NCCCCN1CCN(c2cccc(Cl)c2Cl)CC1)c1cccc2c1-c1ccccc1C2=O |
|  |  | 47.7 |  | COc1c(C(=O)NCCN2CCc3ccccc3C2)cc(Br)c2ccccc12 |
|  |  | 21.2 |  | COc1cc2c(cc1OC)CN(CCNC(=O)c1cc(Br)c3ccccc3c1OC)CC2 |
|  |  | 16.4 | 265 | COc1cc2c(cc1OC)CN(CCNC(=O)c1cc(Br)cc(OC)c1OC)CC2 |
|  |  | 13.3 |  | COc1cc2c(cc1OC)CN(CCNC(=O)c1cc(C)ccc1OC)CC2 |
|  |  | 12.4 |  | COc1cc2c(cc1OC)CN(CCNC(=O)c1cc(Br)ccc1OC)CC2 |
|  |  | 89.4 |  | COc1ccc(Br)cc1C(=O)NCCN1CCc2ccccc2C1 |
